Measured values reported in PMC9858543, “Design, synthesis and evaluation of 2, 6, 8-substituted Imidazopyridine derivatives as potent PI3Kα inhibitors” (Journal of Enzyme Inhibition and Medicinal Chemistry, 2023).
Read-outs that look alike come from different tables or passages of the source.

Experiments:
[1] = Liver microsomal stability assay, RLM; format: in vitro ADME, rat
Procedure: The metabolic stability of compound 35 was determined in human or SD rat liver microsomes, with and without the NADPH regenerating system. Briefly, compound 35 was incubated with microsomes (human microsome, CORNING, lot No. 38296; rat microsome, Xenotech, Lot No. 2110178) (0.5 mg protein/mL) at 1 μM at 37 °C in potassium phosphate buffer (100 mM at pH 7.4 with 10 mM MgCl2). The reactions were initiated by adding prewarmed cofactors (1 mmol NADPH). After incubation for different times (0, 5, 10, 20, 30, and 60 min) at 37 °C, cold acetonitrile containing 200 ng/mL tolbutamide and 200 ng/mL labetalol as internal standards was added to precipitate the protein. Then, the samples were centrifuged, and the supernatants were transferred into HPLC water, mixed by plate shaker for 10 min prior to LC − MS/MS analysis.

MCF-7 = test: Cell proliferation assay (CellTiter-Glo), MCF-7; format: cell-based; conditions: Homo sapiens, MCF7; 72 h exposure; mean ± SD of two experiments
Procedure: (§1) Given the desirable enzyme activity profile, these compounds were further assayed for their antiproliferative activities against five independent human tumour cell line collections harbouring PIK3CA mutation, including human ovarian cancer cell line SKOV-3, human breast cancer T47D and MCF-7, human lung cancer H1975 and H460. […] In general, the cellular activity of tested derivatives corrected with their effects on kinase activity.
(§2) All target compounds were evaluated for antiproliferative potency against SKOV-3, T47D,NCI-H1975, NCI-H460,and MCF-7 tumour cell lines using a CellTiter-Glo® Luminescent Cell Viability Assay. The human tumour cell lines used were obtained from the ATCC or Shanghai ZhongQiaoXinZhou Biotech. All the mediums and FBS were Gibco. T47D, H1975 and NCI-H460 tumour cells were cultured in RPMI1640 medium supplemented with 10% FBS. SKOV-3 was cultured in McCoy’s 5 A medium supplemented with 10%FBS. The day before treatment with compounds, cells were seeded at a density of 2000 or 5000 in each well of a 96-well plate. The tumour cells were then treated with 3-fold serial diluted compound or DMSO control in the incubator at 37 °C and 5% CO2 for 3 days, prior to the addition of CellTiter-Glo reagents (Promega) and reading of luminescence using a PerkinElmer Envision plate reader. Data were analysed using GraphPad Prism 7.0.

CYP1A2 = molecular target: T1, CYP1A2 (Homo sapiens, UniProt P05177); test: CYP450 inhibition assay in human liver microsomes; format: in vitro ADME; conditions: 10 μM
T1 construct: tissue Lot No. 38292; host or cells: human liver microsomes
T1 sequence (P05177 1-516): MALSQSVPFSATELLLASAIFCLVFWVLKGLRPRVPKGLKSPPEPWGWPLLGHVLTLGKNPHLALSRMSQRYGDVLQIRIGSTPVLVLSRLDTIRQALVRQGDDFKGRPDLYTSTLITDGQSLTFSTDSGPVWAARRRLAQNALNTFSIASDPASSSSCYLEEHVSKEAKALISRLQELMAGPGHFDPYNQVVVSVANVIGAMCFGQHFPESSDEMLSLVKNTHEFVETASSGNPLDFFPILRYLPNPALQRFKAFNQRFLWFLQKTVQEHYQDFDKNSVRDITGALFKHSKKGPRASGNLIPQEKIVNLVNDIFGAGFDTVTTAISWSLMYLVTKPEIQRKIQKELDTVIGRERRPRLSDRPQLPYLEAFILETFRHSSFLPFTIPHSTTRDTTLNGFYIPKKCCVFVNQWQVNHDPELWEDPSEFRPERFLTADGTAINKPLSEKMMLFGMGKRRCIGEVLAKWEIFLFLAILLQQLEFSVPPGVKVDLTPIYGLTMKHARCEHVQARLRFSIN
Procedure: (§3) Cytochrome P450 inhibition was evaluated in human liver microsomes (0.253 mg/mL, Lot No. 38292) using five specific probe substrates (CYP1A2, 10 μM phenacetin; CYP2D6, 5 μM dextromethorphan; and CYP3A4, 2 μM midazolam; 2C9, 5 μM Diclofenac; 2C19, 30 μM S-mephenytoin) and positive control in the presence of multiple concentrations of the test compound. After pre-warm at 37 °C for 10 min, the reaction was initiated by the addition of NADPH. The mixture was incubated at 37 °C for 10 min, terminated by the addition of cold stop solution (200 ng/mL tolbutamide and 200 ng/mL labetalol in acetonitrile). The samples were centrifuged, and the supernatants were analysed by LC − MS/MS.

CYP2C19 = molecular target: T2, CYP2C19 (Homo sapiens, UniProt P33261); test: CYP450 inhibition assay in human liver microsomes; format: in vitro ADME; conditions: 10 μM
T2 construct: tissue Lot No. 38292; host or cells: human liver microsomes
T2 sequence (P33261 whole entry): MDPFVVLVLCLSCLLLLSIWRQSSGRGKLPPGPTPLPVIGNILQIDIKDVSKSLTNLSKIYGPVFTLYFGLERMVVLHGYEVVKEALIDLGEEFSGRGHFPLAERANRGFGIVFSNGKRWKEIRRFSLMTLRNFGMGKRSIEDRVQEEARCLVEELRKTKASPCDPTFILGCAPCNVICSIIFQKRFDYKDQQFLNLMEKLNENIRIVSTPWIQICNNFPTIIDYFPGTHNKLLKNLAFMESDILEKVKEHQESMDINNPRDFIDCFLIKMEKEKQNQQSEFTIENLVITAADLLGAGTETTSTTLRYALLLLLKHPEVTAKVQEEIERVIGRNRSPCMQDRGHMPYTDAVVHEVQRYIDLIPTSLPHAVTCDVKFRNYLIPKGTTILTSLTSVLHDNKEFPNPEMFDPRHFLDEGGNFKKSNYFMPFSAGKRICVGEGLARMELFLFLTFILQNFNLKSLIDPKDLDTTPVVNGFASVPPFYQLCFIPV
Procedure: as §3

CYP2D6 = molecular target: T3, CYP2D6 (Homo sapiens, UniProt P10635); test: CYP450 inhibition assay in human liver microsomes; format: in vitro ADME; conditions: 10 μM
T3 construct: tissue Lot No. 38292; host or cells: human liver microsomes
T3 sequence (P10635 whole entry): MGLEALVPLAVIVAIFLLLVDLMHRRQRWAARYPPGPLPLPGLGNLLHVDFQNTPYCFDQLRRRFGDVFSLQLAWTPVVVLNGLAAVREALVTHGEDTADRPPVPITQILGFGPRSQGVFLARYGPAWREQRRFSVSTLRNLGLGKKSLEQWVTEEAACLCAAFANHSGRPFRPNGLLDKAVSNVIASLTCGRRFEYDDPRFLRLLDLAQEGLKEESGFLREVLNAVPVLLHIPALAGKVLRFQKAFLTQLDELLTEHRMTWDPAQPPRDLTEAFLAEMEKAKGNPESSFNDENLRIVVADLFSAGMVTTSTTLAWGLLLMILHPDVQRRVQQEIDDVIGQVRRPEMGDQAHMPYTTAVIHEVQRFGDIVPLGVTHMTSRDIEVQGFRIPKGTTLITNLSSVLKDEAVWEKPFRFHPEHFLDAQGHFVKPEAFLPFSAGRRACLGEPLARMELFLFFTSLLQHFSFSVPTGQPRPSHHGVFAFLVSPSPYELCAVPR
Procedure: as §3

CYP2C9 = molecular target: T4, CYP2C9 (Homo sapiens, UniProt P11712); test: CYP450 inhibition assay in human liver microsomes; format: in vitro ADME; conditions: 10 μM
T4 construct: tissue Lot No. 38292; host or cells: human liver microsomes
T4 sequence (P11712 whole entry): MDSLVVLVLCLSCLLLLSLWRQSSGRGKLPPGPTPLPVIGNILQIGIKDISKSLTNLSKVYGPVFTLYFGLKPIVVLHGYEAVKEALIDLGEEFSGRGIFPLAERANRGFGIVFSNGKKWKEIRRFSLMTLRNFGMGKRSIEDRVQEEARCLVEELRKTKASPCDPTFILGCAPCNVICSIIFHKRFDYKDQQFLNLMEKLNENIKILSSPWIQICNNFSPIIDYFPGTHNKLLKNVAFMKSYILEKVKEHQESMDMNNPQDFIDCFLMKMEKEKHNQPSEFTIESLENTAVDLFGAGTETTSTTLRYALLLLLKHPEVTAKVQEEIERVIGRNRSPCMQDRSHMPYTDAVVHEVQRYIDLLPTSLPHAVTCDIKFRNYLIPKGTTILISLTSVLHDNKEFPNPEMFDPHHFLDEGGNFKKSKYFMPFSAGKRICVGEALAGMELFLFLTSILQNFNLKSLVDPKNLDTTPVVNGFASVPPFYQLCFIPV
Procedure: as §3

CYP3A4 = molecular target: T5, CYP3A4 (Homo sapiens, UniProt P08684); test: CYP450 inhibition assay in human liver microsomes; format: in vitro ADME; conditions: 10 μM
T5 construct: tissue Lot No. 38292; host or cells: human liver microsomes
T5 sequence (P08684 whole entry): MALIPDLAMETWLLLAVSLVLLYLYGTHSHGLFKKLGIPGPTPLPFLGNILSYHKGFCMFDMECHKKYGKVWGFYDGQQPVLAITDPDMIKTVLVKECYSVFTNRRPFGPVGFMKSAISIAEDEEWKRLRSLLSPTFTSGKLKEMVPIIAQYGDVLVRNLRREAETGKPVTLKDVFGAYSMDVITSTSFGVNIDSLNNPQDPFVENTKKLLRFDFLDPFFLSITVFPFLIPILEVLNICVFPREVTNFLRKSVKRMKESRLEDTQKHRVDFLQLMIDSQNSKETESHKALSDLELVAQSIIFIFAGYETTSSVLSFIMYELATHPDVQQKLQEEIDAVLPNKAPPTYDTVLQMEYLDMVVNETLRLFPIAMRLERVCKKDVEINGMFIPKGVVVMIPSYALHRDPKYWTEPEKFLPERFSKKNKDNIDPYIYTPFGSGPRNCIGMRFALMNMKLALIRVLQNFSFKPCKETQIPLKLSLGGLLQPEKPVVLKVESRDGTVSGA
Procedure: as §3

[2] = Parallel artificial membrane permeability assay (Egg-PAMPA); format: in vitro ADME; conditions: incubation 4 h; for Papp at 4 h, 10 μM: PAMPA
Procedure: 10.0 μM donor solution (5% DMSO) was prepared by diluting of working solution with PBS. The donor solution was added to each well of the donor plate, whose PVDF membrane was precoated with 5 µL of 1% lecithin/dodecane mixture. Duplicates were prepared.Then, PBS was added to each well of the PTFE acceptor plate. The donor plate and acceptor plate were combined and incubated for 4 h at room temperature with shaking at 300 rpm. Acceptor samples and donor samples were prepared and analysed by LC-MS/MS.

T47D = test: Cell proliferation assay (CellTiter-Glo), T47D; format: cell-based; conditions: Homo sapiens, 72 h exposure, mean ± SD of two experiments
Procedure: as §1, §2

NCI-H460 = test: Cell proliferation assay (CellTiter-Glo), NCI-H460; format: cell-based; conditions: Homo sapiens, 72 h exposure, mean ± SD of two experiments
Procedure: as §1, §2

Compound: COc1ncc(-c2cc(C)cn3cc(C(=O)N4CCCC4)nc23)cc1NS(=O)(=O)c1ccc(F)cc1 [Compound 35, 4-Fluoro-N-(2-methoxy-5–(6-methyl-2-(pyrrolidine-1-carbonyl)Imidazo[1,2-a]pyridin-8-yl)pyridin-3-yl)benzenesulfonamide]
- Remaining (T = 60min) ([1]; 1 μM, 60 min): 31.5%
- microsomal CLint at 1 μM ([1]; SD, rat, rat liver microsomes, pH 7.4, 0.5 mg protein/mL, read-out: Metabolic stability CL int): 43.4 µL/min/mg
- half-life at 1 μM ([1]; SD, rat, rat liver microsomes, pH 7.4, 0.5 mg protein/mL, read-out: Metabolic stability T1/2): 31.9 min
- IC50 (MCF-7): 9.4 ± 0.6 µM
- CYP1A2 % inhibition (CYP1A2): 9.8%
- CYP2C19 % inhibition (CYP2C19): 25.9%
- CYP2D6 % inhibition (CYP2D6): 13.5%
- CYP2C9 % inhibition (CYP2C9): 30.6%
- CYP3A4 % inhibition (CYP3A4): 42.6%
- Mean Pe ([2]; 10 μM): higher than 10 nm/s
- Papp at 4 h, 10 μM ([2]; read-out: Mean Pe): 1.54 ×10⁻⁶ cm/s
- Papp at 4 h, 10 μM ([2]; read-out: Permeability): > 1 ×10⁻⁶ cm/s
- IC50 (T47D): 7.9 ± 0.8 µM
- IC50 (NCI-H460): 17.7 ± 2 µM
